{"source": "paper PMC2949447", "about": "(The Journal of steroid biochemistry and molecular biology, 2010)", "key": {"[1]": {"tested_on": "castrate immature male Sprague-Dawley rats", "experiment": "Effect of dutasteride in the sc androgenic assay", "format": "in vivo, rat", "settings": "8 days; for effect of concurrent DUT on androgen-stimulated VP and SV weights: maximal stimulatory sc dose of androgen ± DUT 1.0 mg/day orally"}, "[2]": {"tested_on": "rat liver or prostate homogenates", "settings": "ref Sundaram et al. [1]; cited from earlier work"}, "[3]": {"experiment": "Serum androgen levels by RIA in androgen ± dutasteride treated rats", "settings": "for effect of concurrent DUT on serum level of the administered androgen: androgen sc ± DUT 1.0 mg/day orally, blood 2 h after final dose; for serum DHT levels: n=10"}, "[4]": {"tested_on": "castrate immature male Sprague-Dawley rats", "experiment": "sc androgenic assay in castrate immature rats", "format": "in vivo, rat"}, "[5]": {"tested_on": "recombinant human aromatase", "settings": "conditions allowing complete conversion of T to estradiol; ref [13]; cited from earlier work"}, "castrate rats": {"tested_on": "castrate rats", "settings": "single sc injection 1.2 mg/rat, castrate 22 day-old rats; ref [5] and unpublished observations; cited from earlier work"}, "[6]": {"biological_target": "T1, rat AR ligand binding domain (ARLBD) (Rattus norvegicus, UniProt P15207)", "T1 sequence (P15207 651-882 limits assumed)": "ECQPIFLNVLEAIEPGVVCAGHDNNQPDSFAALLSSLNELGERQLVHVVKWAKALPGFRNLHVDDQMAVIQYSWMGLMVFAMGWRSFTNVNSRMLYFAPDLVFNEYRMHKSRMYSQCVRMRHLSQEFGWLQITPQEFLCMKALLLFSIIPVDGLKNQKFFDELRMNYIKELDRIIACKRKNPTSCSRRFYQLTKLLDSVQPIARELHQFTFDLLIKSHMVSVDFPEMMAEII", "experiment": "Competitive binding to purified rat AR ligand binding domain", "settings": "RBA = IC50 R1881/IC50 test compound X 100; R1881 defined as 100%"}}}
{"smiles": "C[C@@H]1CC2=CC(=O)CC[C@@H]2[C@H]2CC[C@]3(C)[C@@H](O)CC[C@H]3[C@@H]21", "note": "[MENT, 7α-methyl-19-nortestosterone]", "values": [{"measurement": "effect of concurrent DUT on androgen-stimulated VP and SV weights", "setting": "[1]", "value": "comparable"}, {"measurement": "5α-reduction", "setting": "[2]", "value": "not 5α-reduced"}, {"measurement": "effect of concurrent DUT on serum level of the administered androgen", "setting": "[3]; 8 days", "value": "significantly decreased"}]}
{"smiles": "C[C@]12CC[C@H]3[C@@H](CCC4=CC(=O)CC[C@@]43C)[C@@H]1CC[C@@H]2O", "note": "[T, Testosterone]", "values": [{"measurement": "effect of concurrent DUT on androgen-stimulated VP and SV weights", "setting": "[1]", "value": "significantly blunted"}, {"measurement": "effect of concurrent DUT on serum DHT in T-treated rats", "setting": "[3]; T sc + DUT 1.0 mg/day orally, 8 days", "value": "suppressed to levels observed in castrate vehicle-treated rats"}, {"measurement": "effect of concurrent DUT on serum level of the administered androgen", "setting": "[3]; 8 days", "value": "significantly elevated"}, {"measurement": "serum DHT levels", "setting": "[3]; rats treated sc with 0.23 mg T alone for 8 days, 2 h after final dose", "value": "1,247 ± 106 pg/ml"}]}
{"smiles": "C[C@@H]1CC2=CC(=O)CC[C@@H]2[C@@H]2[C@@H]1[C@@H]1CC[C@H](O)[C@@]1(C)C[C@@H]2C", "note": "[DMA, 7α,11β-dimethyl-19-nortestosterone]", "values": [{"measurement": "effect of concurrent DUT on androgen-stimulated VP and SV weights", "setting": "[1]", "value": "did not affect VP or SV weights"}, {"measurement": "anabolic activity (stimulation of LA muscle weight), comparison", "setting": "[4]; sc, Fig. 1b", "value": "greater than that of 5α-DHDMA or T"}, {"measurement": "effect of concurrent DUT on serum level of the administered androgen", "setting": "[3]; 8 days", "value": "not significantly different"}, {"measurement": "aromatization to aromatic A-ring estrogen", "setting": "[5]", "value": "not aromatized"}]}
{"smiles": "C[C@]12CCC(=O)C[C@@H]1CC[C@@H]1[C@@H]2CC[C@]2(C)[C@@H](O)CC[C@@H]12", "note": "[DHT, 5α-dihydrotestosterone]", "values": [{"measurement": "effect of concurrent DUT on androgen-stimulated VP and SV weights", "setting": "[1]", "value": "comparable"}, {"measurement": "effect of concurrent DUT on serum level of the administered androgen", "setting": "[3]; 8 days", "value": "not significantly different"}]}
{"smiles": "C[C@]12C=CC(=O)N[C@@H]1CC[C@@H]1[C@@H]2CC[C@]2(C)[C@@H](C(=O)Nc3cc(C(F)(F)F)ccc3C(F)(F)F)CC[C@@H]12", "note": "[DUT, 17β-N-2,5-bis-[trifluoromethyl]-phenylcarbamoyl-4-aza-5a-androstan-1-en-3-one]", "values": [{"measurement": "toxicity judged by suppression of body weights", "setting": "[1]; DUT 10 mg/day orally", "value": "showed evidence of toxicity"}, {"measurement": "effect on VP and SV weights in T-treated rats", "setting": "[1]; DUT 0.1, 1.0 or 10.0 mg/day orally with T 0.23 mg/day sc", "value": "significantly decreased"}, {"measurement": "serum DHT levels", "setting": "[3]; T 0.23 mg sc + DUT 0.1 mg/rat orally, 8 days", "value": "606 ± 111", "unit": "pg/mL"}, {"measurement": "serum DHT levels", "setting": "[3]; T 0.23 mg sc + DUT 1.0 mg/rat orally, 8 days", "value": "235 ± 36", "unit": "pg/mL"}, {"measurement": "serum DHT levels", "setting": "[3]; T 0.23 mg sc + DUT 10 mg/rat orally, 8 days", "value": "56 ± 4", "unit": "pg/mL"}]}
{"smiles": "CCCCCCCCCCCCOC(=O)O[C@H]1CC[C@H]2[C@@H]3CCC4=CC(=O)CC[C@@H]4[C@H]3[C@@H](C)C[C@]12C", "note": "[MNTDC, 11β-methyl-19-nortestosterone 17β-dodecylcarbonate]", "values": [{"measurement": "duration VP and SV growth maintained above castrate levels", "setting": "castrate rats", "value": "~14", "unit": "weeks"}]}
{"smiles": "C[C@@H]1C[C@H]2CC(=O)CC[C@@H]2[C@H]2CC[C@]3(C)[C@@H](O)CC[C@H]3[C@@H]21", "note": "[5α-DHMENT, 5α-dihydroMENT]", "values": [{"measurement": "Binding to ARLBD RBA", "setting": "[6]", "value": 26, "unit": "%"}]}
{"smiles": "CCCCCCCCCCC(=O)O[C@H]1CC[C@H]2[C@H]3[C@H]([C@@H](C)C[C@]12C)[C@H]1CCC(=O)C=C1C[C@H]3C", "note": "[DMAU, dimethandrolone 17β-undecanoate]", "values": [{"measurement": "duration VP and SV growth maintained above castrate levels", "setting": "castrate rats", "value": "about 21 weeks"}]}
{"smiles": "C[C@@H]1C[C@H]2CC(=O)CC[C@@H]2[C@@H]2[C@@H]1[C@@H]1CC[C@H](O)[C@@]1(C)C[C@@H]2C", "note": "[5α-DHDMA, 5α-dihydroDMA]", "values": [{"measurement": "androgenic potency as percent of DMA (ventral prostate growth)", "setting": "[4]; sc 7 days", "value": "30-40%"}]}
{"smiles": "C[C@H]1C[C@]2(C)[C@@H](O)CC[C@H]2[C@@H]2CCC3=CC(=O)CC[C@@H]3[C@H]21", "note": "[MNT, 11β-methyl-19-nortestosterone]", "values": [{"measurement": "effect of concurrent DUT on androgen-stimulated VP and SV weights", "setting": "[1]", "value": "did not affect VP or SV weights"}, {"measurement": "effect of concurrent DUT on serum level of the administered androgen", "setting": "[3]; 8 days", "value": "higher"}, {"measurement": "aromatization to aromatic A-ring estrogen", "setting": "[5]", "value": "not aromatized"}]}
